Test results as given in a melting point compilation (Tetko et al.; mined from patent text by program, amines drawn as free bases though some values may be those of a salt).

Q: With `CCOC(=O)c1c(CN(CC)CC)nc2sc3c(c2c1-c1ccc(OC)c(OC)c1)CN(C(=O)c1ccc(Cl)cc1)CC3` as the molecule, how does the melting point read?
A: 91 to 92 °C

Q: For `Cc1nc(CNC(=O)c2sc(-n3cnn(Cc4ccc(F)cc4)c3=O)cc2C)cs1`, which melting point is on record?
A: 148 to 150 °C

Q: Which melting point does the source give for `CCOC(=O)c1cn(C)c2nc3c(F)c(N4CCNC(c5ccc(OC)cc5)C4)c(F)cc3cc2c1=O` (racemic) here?
A: 209 °C

Q: With `COc1ccc(OC)c(Nc2nc(-c3cccc([N+](=O)[O-])c3)cs2)c1` as the molecule, how does the melting point read?
A: 154 °C

Q: With `CCN1CCC(CNC(=O)c2cc(Cl)c(N)[nH]c2=O)CC1` as the molecule, how does the melting point read?
A: 136 to 140 °C

Q: Which melting point does the source give for `O=S(=O)(c1[nH]c(-c2ccc(Cl)cc2)c(S(=O)(=O)C(F)(F)F)c1Br)C(F)(F)F` here?
A: 115 to 135 °C

Q: For `O=C(O)c1c([N+](=O)[O-])cccc1[N+](=O)[O-]`, which melting point is on record?
A: 200 to 202 °C

Q: For `CN(C)c1cc(Br)cc(S(=O)(=O)c2ccc([N+](=O)[O-])cc2)c1`, which melting point is on record?
A: 166 to 168 °C

Q: Which melting point does the source give for `CC(CO)Cn1cnc2c(N)nc3ccccc3c21` (stereo unspecified) here?
A: 258 to 261 °C

Q: With `Cc1ccc2cccc(N(Cc3c(Cl)ccc([N+](=O)[O-])c3Cl)C(=O)OC(C)(C)C)c2n1` as the molecule, how does the melting point read?
A: 130 to 131 °C

Q: Which melting point does the source give for `CCOC(=O)c1ncn2c1CN(C)C(=O)c1c(C#N)cccc1-2` here?
A: 200 to 201 °C

Q: With `CC(=O)OC1CCC2(C)C(CCC3C4CC(C)C(O)(C(C)=O)C4(C)CCC32F)C1` (stereo unspecified) as the molecule, how does the melting point read?
A: 150 °C

Q: With `CC12CCC(C1)C1(C)Oc3ccc(CCOc4ccc(C(=O)O)c(O)c4)cc3C21C` (stereo unspecified) as the molecule, how does the melting point read?
A: 212 to 214 °C

Q: Which melting point does the source give for `BrCCCCCc1nc2ccccc2[nH]1` here?
A: 134 to 136 °C

Q: With `O=C1c2ccccc2C(=O)N1c1nc(Cl)nc(Cl)n1` as the molecule, how does the melting point read?
A: 175 to 179 °C

Q: With `CCOC(=O)N(N)c1ccc(C)cc1` as the molecule, how does the melting point read?
A: 35 °C

Q: With `CC(C)(C)c1ccc(Cn2c(=S)n(Cc3ccc(NS(C)(=O)=O)cc3)c3ccccc32)cc1` as the molecule, how does the melting point read?
A: 176 to 178 °C

Q: For `CN(c1ccc(Cl)c2cc(C(N)=O)[nH]c12)S(=O)(=O)c1cccs1`, which melting point is on record?
A: 252 to 254 °C

Q: For `COc1ccc(C2=NN(c3ccc(OCC(N)=O)cc3)C(=O)C(C)(C)C2)cc1OC`, which melting point is on record?
A: 184 to 187 °C

Q: For `COc1ccc(Sc2c(C(=O)O)[nH]c3cc(C)ccc23)cc1`, which melting point is on record?
A: 190 to 192 °C

Q: Which melting point does the source give for `CC1(C)c2cc(C#N)ccc2OC1N1CCOCC1` (stereo unspecified) here?
A: 105 to 107 °C

Q: With `CC(C)(C)c1ccccc1N1CCN(C(=O)CCC(=O)NS(C)(=O)=O)CC1` as the molecule, how does the melting point read?
A: 89 to 90 °C

Q: For `CCc1cccc2c3c([nH]c12)C1(CC(=O)O)CC1CC3` (stereo unspecified), which melting point is on record?
A: 154 to 156 °C

Q: With `CC(C)n1nc(-c2c(-c3ccccc3)nn3ccc(C(=O)NCCOc4ccccc4)cc23)ccc1=O` as the molecule, how does the melting point read?
A: 156 to 157 °C

Q: With `COc1ccc(CN(CC(=O)OC(C)(C)C)S(=O)(=O)c2ccc3c(Cl)cnc(Cl)c3c2)cc1` as the molecule, how does the melting point read?
A: 117 to 118 °C

Q: With `CS(=O)(=O)Nn1c(=O)[nH]c2cc(C(F)(F)F)c(C3CCCO3)cc2c1=O` (stereo unspecified) as the molecule, how does the melting point read?
A: 254 to 257 °C

Q: With `CNS(=O)(=O)c1cc2c(c(C(=O)OC)c1)OCCO2` as the molecule, how does the melting point read?
A: 159 to 160 °C

Q: Which melting point does the source give for `O=C1Nc2ccc(Cl)cc2C(c2ccccc2)N1C1CCN(Cc2ccccc2)CC1` (stereo unspecified) here?
A: > 230 °C

Q: With `CCCCCCCCCCCCCCCCCCCCC(NC(C)=O)(C(=O)OCC)C(=O)OCC` as the molecule, how does the melting point read?
A: 76.5 to 77.5 °C

Q: With `CCc1cc(CCN2C(=O)c3ccccc3C2=O)c(=O)[nH]c1C` as the molecule, how does the melting point read?
A: 232 to 233 °C

Q: Which melting point does the source give for `O=C(c1ccc(-c2ccccc2)cc1)n1c2cc(O)c(O)cc2c2ccc(O)c(O)c21` here?
A: 291 to 294 °C

Q: For `COc1ccc([C@H](Sc2ccccc2NC(C)=O)[C@@H](O)C(=O)O)cc1`, which melting point is on record?
A: 173 to 175 °C

Q: For `Oc1cccc(CCCc2cc(C(c3ccccc3)c3ccccc3)on2)c1`, which melting point is on record?
A: 114 to 117 °C

Q: With `O=c1oc2ccc(F)cc2c(CBr)c1Br` as the molecule, how does the melting point read?
A: 125 to 127 °C

Q: Which melting point does the source give for `O=c1c(-c2ccccc2)c(CSc2ncnc3[nH]cnc23)oc2ccc(Br)cc12` here?
A: 214 to 218 °C

Q: Which melting point does the source give for `COc1ccc(-c2ccccc2C#N)cc1` here?
A: 82 to 83 °C

Q: Which melting point does the source give for `CCOC(=O)C1=C(C)NC(C)=C(C(=O)OC(C)C)C1c1ccccc1C#N` (stereo unspecified) here?
A: 152 °C

Q: With `CCC(C)(C)C(=O)Oc1cccc2ccc(OCCOc3ccc(C(=O)C(=O)OC)cc3)cc12` as the molecule, how does the melting point read?
A: 119 to 120 °C

Q: Which melting point does the source give for `CCCCCCCCCCCCCC=C1CC(CO)(COC(C)=O)OC1=O` (racemic) here?
A: 58 to 59 °C

Q: With `CC(C)Cc1ccc(C(C)C(=O)NO)cc1` (stereo unspecified) as the molecule, how does the melting point read?
A: 119 to 121 °C

Q: Which melting point does the source give for `O=C1CN(C(=O)c2ccco2)c2ccccc2N1` here?
A: 229 to 230 °C

Q: For `NNc1ccc2c(=O)[nH]ccc2c1`, which melting point is on record?
A: 270 °C

Q: Which melting point does the source give for `CC(C)(C)OC(=O)C[C@H](NC(=O)CNC(=O)c1csc(NC(=O)NCc2ccccc2)n1)C(=O)NCc1ccccc1` here?
A: 123 °C

Q: With `CC(C)(C)C(=O)Oc1cc(OS(=O)(=O)C(F)(F)F)cc2oc(-c3ccccc3)cc(=O)c12` as the molecule, how does the melting point read?
A: 126 to 128 °C

Q: For `N=C(N)Nc1ccc(C(=O)Nc2cccc3cccnc23)cc1`, which melting point is on record?
A: 271 to 273 °C

Q: For `Cc1nnc2n1-c1sc(C(C)OC(=O)C=Cc3ccccc3)cc1C(c1ccccc1Cl)=NC2` (stereo unspecified), which melting point is on record?
A: 122 to 125 °C

Q: Which melting point does the source give for `CCOc1ccc(C2=NN(c3ccc(C4=NNC(=O)CC4C)cc3)C(=O)C3CC=CCC23)cc1OCC` (stereo unspecified) here?
A: 164 to 165 °C

Q: With `CCOCc1nc2c(N)nc3cc(C=O)ccc3c2n1CC(C)(C)O` as the molecule, how does the melting point read?
A: 203 to 205 °C

Q: With `CCN(CC)C(=O)Cc1c(-c2ccc(OC)cc2)nc2c(C)cc(C)nn12` as the molecule, how does the melting point read?
A: 129 to 131 °C

Q: For `CC(=O)n1cc(Cl)c(-c2cc(Cl)cc(Cl)c2)n1`, which melting point is on record?
A: 125 °C

Q: For `O=C(O)C(O)c1cccc(OCc2ccccc2Cl)c1OCc1ccncc1` (stereo unspecified), which melting point is on record?
A: 181 to 183 °C

Q: With `COC1=C(OC)C(=O)C2=C(CC(CCCCOc3ccc(C(=O)N(C)C)cc3)C2)C1=O` as the molecule, how does the melting point read?
A: 80 to 83 °C

Q: For `C=CCc1cc(C=C(C(=O)OCC)C(=O)OCC)ccc1OC`, which melting point is on record?
A: 69 °C

Q: For `CCN(CC)C(=O)c1ccc2ccccc2c1-c1ccccc1`, which melting point is on record?
A: 121 to 122 °C

Q: For `Cc1c(Br)ccc2c1oc1ccccc12`, which melting point is on record?
A: 124 to 125 °C

Q: With `CC1(C)CCC(C)(C)c2cc(C(=O)c3ccccc3C=O)ccc21` as the molecule, how does the melting point read?
A: 145 °C

Q: With `CC(C)(C)c1cc2c(c(C(C)(C)C)c1)OP(Cl)Oc1c(cc(C(C)(C)C)cc1C(C)(C)C)C2` as the molecule, how does the melting point read?
A: 227 to 230 °C

Q: Which melting point does the source give for `COC1=NS(=O)(=O)N=C1OC` here?
A: 200 to 202 °C

Q: With `COC(=O)C[C@H]1C[C@H](C(=O)O)Nc2cc(Cl)cc(Cl)c21` (relative stereo) as the molecule, how does the melting point read?
A: 181 to 182 °C

Q: For `C1CNCCNCCNCCNCCNC1`, which melting point is on record?
A: 109 to 110 °C

Q: Which melting point does the source give for `O=C1CCC(C(=O)O)C1` (stereo unspecified) here?
A: 59 to 60.5 °C

Q: For `O=C(CCCCCNC(=O)c1cccc2ccccc12)NO`, which melting point is on record?
A: 118 to 119 °C

Q: Which melting point does the source give for `Cc1cccc(Nc2cc(Nc3ccc(OCC(=O)N(C)C)c(Cl)c3)ncn2)c1` here?
A: 190 to 193 °C

Q: With `O=C(c1ccc2c(c1)OCCO2)c1ccc2nc(Cl)nc(-c3cccc(Cl)c3)c2c1` as the molecule, how does the melting point read?
A: 198 °C

Q: With `CCOC(=O)COn1c2c([nH]c(=O)c1=O)CCC1=C2C=C(n2c(C)ccc2C)CC1` as the molecule, how does the melting point read?
A: 157 to 158 °C

Q: For `O=C(O)C#Cc1ccccn1`, which melting point is on record?
A: 130 °C

Q: With `Nc1nc(N)c(N)c(OCC2CCCCC2)n1` as the molecule, how does the melting point read?
A: 154 °C

Q: For `COc1ccc(C2=Nc3cccnc3Nc3ccccc32)cc1`, which melting point is on record?
A: 198 to 200 °C

Q: Which melting point does the source give for `O=c1oc(-c2cccc(S(=O)(=O)C(F)(F)F)c2)nc2ccccc12` here?
A: 96 to 102 °C

Q: For `CCCCCCCCCCCC/C=C/c1ccc2c(c1)OCO2`, which melting point is on record?
A: 34 to 36 °C

Q: For `CC(=O)N1CCC(C)(C)c2cc(/C(C)=C/c3ccc(C(=O)O)cc3)ccc21`, which melting point is on record?
A: 200 to 202 °C
